“Also recorded” adds a separate entry of the source.
Key:
Type in all cases: in vivo, Arabidopsis thaliana
[1] = tested on: BSS1-GFP; test: Fluorescence microscopy of punctate BSS1-GFP in transgenic seedlings; conditions: for number of intense puncta per cell: 7-day-old BSS1-GFP seedlings treated 3 hours with 3 μM Brz or 100 μM BL; for single fluorescence intensity of each punctum: Brz versus BL treatment conditions, 3 hours; for onset of responsiveness of punctate BSS1-GFP: time after treatment, roots and hypocotyls
Method: FIGS. 5C to 5E show analysis of BSS1-GFP puncta signal intensities upon treatment with Brz and BL. Seven-day-old BSS1-GFP transgenic seedlings were treated for 3 hours with 3 μM Brz (Brz), an equal volume of DMSO (Mock), or 100 μM BL (BL). […] The results are represented as the mean±s.d. The signal intensity was measured using ImageJ software. […]
(§1) The plants that were transformed with the CaMV35S-BSS1-GFP construct BSS1(-GFP)-OX and the CaMV35S-BIL1-GFP construct BIL1-GFP-OX were observed via confocal laser scanning microscopy with a BX60 fluorescence microscope (Olympus) equipped with a Model CSU10 confocal scanner (Yokogawa Electric) and LSM700 (Zeiss).
FM4-64 (Molecular Probes) dissolved in water was applied to Arabidopsis plants at a final concentration of 4 μM for 3 minutes. The plants were washed with water to remove the excessive amount of the stain and observed. A DMSO-base stock solution of Brefeldin A (BFA) (Sigma) was applied to the cells at a final concentration of 50 μM for 1 hour.
(§2) The images were analyzed using ImageJ software. To measure the ratio of the nuclear and cytosolic signals of BIL1-GFP for each cell, the signal intensities in the nucleus and cytosol were calculated from the mean of the intensity in each area. The nuclear to cytosolic signal ratio was then calculated for each cell. The average nuclear/cytosolic signal ratio and standard error were calculated from measurements of at least 54 cells from each line (FIG. 9B). Line scan measurements from the vacuole to the nucleus through the cytosol were performed, and representative plot profiles of sample measurements are presented in FIG. 5C.

[2] = tested on: BSS1-GFP; test: Non-reducing immunoblot analysis of BSS1-GFP oligomer; conditions: non-reducing conditions (without DTT); after BL treatment
Method: Oligomeric BSS1-GFP and monomeric BSS1-GFP are shown by arrowhead O and arrowhead M, respectively. […] Total lysates were prepared from the transgenic plants and ultracentrifuged to separate the insoluble (precipitation) and soluble (supernatant) fractions. The insoluble fractions were then treated with the indicated surfactants and subjected to further ultracentrifugation. The resulting supernatants and pellets were analyzed by immunoblotting. As a control, the indicated surfactant-treated BIL2-GFP (protein localized to the mitochondria) samples were centrifuged as above.
[…] The proteins were separated by SDS-PAGE (10% acrylamide gel). After electrophoresis, the proteins were electrophoretically transferred to a Hybond ECL nitrocellulose membrane (Amersham). […]

[3] = tested on: BSS1 pro:GUS; test: GUS staining of BSS1 pro:GUS transgenic seedlings; conditions: 3-day-old seedlings on medium with 3 μM Brz, dark or light
Method: The data represent the mean±s.d. from 4 independent experiments. […] The samples were grown in the same conditions as FIG. 4A for 3 days (scale bar: 5 mm). FIGS. 4C to 4E show the results of determining the BSS1 expression level by qRT-PCR. Wild-type (WT) seedlings grown on medium with different concentrations of Brz (FIG. 4C) and BL (FIG. 4D) in the light for 7 days and dark-grown seedlings exposed to light for 0-7 days (Figure E) were used for analysis of the BSS1 expression level. The data represent the mean±s.d. of 4 independent experiments. The seedlings of the BSS1 promoter: GUS transgenic plants were used for the histochemical detection of GUS expression. The samples were stained at 37° C. overnight in GUS staining solution as previously described (Ito and Fukuda, 2002, ZEN1 is a key enzyme in the degradation of nuclear DNA during programmed cell death of tracheary elements. Plant Cell 14: 3201-3211). To test the induction of GUS expression, 3-day-old transgenic seedlings were grown on medium with 3 μM Brz or dimethyl sulfoxide (DMSO) as a control.

[4] = tested on: BIL1-GFP; test: Fluorescence microscopy of BIL1-GFP localization in root cells; conditions: for punctate BIL1-GFP signals: root cells
Method: The results are presented as the mean±s.d. (n=61, *P<0.01, Student's t-test). […] The results are presented as the mean±s.d. (n=27, *P<0.01, Student's t-test).
as §1, §2

Compound	number of intense puncta per cell ([1]; versus mock)	single fluorescence intensity of each punctum [1]	onset of responsiveness of punctate BSS1-GFP [1]	amount of the oligomeric form of BSS1-GFP [2]	BSS1 pro:GUS reporter expression [3]	fluorescence intensity of the puncta per cell with respect to the whole-cell fluorescence intensity ([1]; 7-day-old BSS1-GFP seedlings treated 3 hours with 3 μM Brz)	cytosolic fluorescence signal ([1]; 7-day-old BSS1-GFP seedlings treated 3 hours with 3 μM Brz, versus mock)	enhanced nuclear BIL1-GFP signal ([4]; bop1-3 bop2-1 background, root cells of 4-day-old seedlings, 3 μM Brz)	punctate BIL1-GFP signals ([4]; bop1-3 bop2-1 plants, treated with 3 μM Brz)	nuclear-to-cytosolic ratio of the BIL1-GFP signal ([4]; wild-type background, root cells of 4-day-old seedlings, 3 μM Brz)	punctate BIL1-GFP signals ([4]; wild-type background, after 3 μM Brz treatment)
CC(C)[C@H](C)[C@@H](O)[C@H](O)[C@@H](C)[C@H]1CC[C@H]2[C@@H]3COC(=O)[C@H]4C[C@H](O)[C@H](O)C[C@]4(C)[C@H]3CC[C@]12C [BL, brassinolide]	decreased	not different	15 min	significantly decreased	–	–	–	–	–	–	–
CC(O)(c1ccccc1)C(Cc1ccc(Cl)cc1)n1cncn1 (centres unmarked) [Brz, brassinazole]	increased	not different	15 min	–	caused BSS1 expression in the hypocotyls in the dark and in the cotyledons under light and dark conditions	increase	decreased	strongly maintained	not detected	decreased	many punctate BIL1-GFP signals in the cytosol; also recorded: observed

— US10323254B2, “Method for regulating plant growth” (RIKEN, priority 2015, dated 2019)
